# Laboratory results: PubChem BioAssay (NCI)
#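 Five concentrations, 48 hours, 96-well plates. TGI is the concentration that stops growth completely.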
# What was measured:
# Experiment in all cases: NCI anticancer screen, dose series, 48 h
# 786-0 renal = system: 786-0 renal
# RXF 393 renal = system: RXF 393 renal
# MDA-MB-231 breast = system: MDA-MB-231 breast
# UACC-257 melanoma = system: UACC-257 melanoma
# A498 renal = system: A498 renal
# OVCAR-3 ovarian = system: OVCAR-3 ovarian
# SK-MEL-2 melanoma = system: SK-MEL-2 melanoma
# UO-31 renal = system: UO-31 renal
# SK-MEL-5 melanoma = system: SK-MEL-5 melanoma
# MOLT-4 leukemia = system: MOLT-4 leukemia
# COLO 205 colon = system: COLO 205 colon
# SF-539 CNS = system: SF-539 CNS
# HOP-92 NSCLC = system: HOP-92 NSCLC
# MDA-N = system: MDA-N
# NCI-H522 lung = system: NCI-H522 lung
# BT-549 breast = system: BT-549 breast
# IGROV1 ovarian = system: IGROV1 ovarian
# NCI/ADR-RES ovarian = system: NCI/ADR-RES ovarian
# SF-295 CNS = system: SF-295 CNS
# SN12C renal = system: SN12C renal
Compound,TGI (786-0 renal),TGI (RXF 393 renal),TGI (MDA-MB-231 breast),TGI (UACC-257 melanoma),TGI (A498 renal),TGI (OVCAR-3 ovarian),TGI (SK-MEL-2 melanoma),TGI (UO-31 renal),TGI (SK-MEL-5 melanoma),TGI (MOLT-4 leukemia),TGI (COLO 205 colon),TGI (SF-539 CNS),TGI (HOP-92 NSCLC),TGI (MDA-N),TGI (NCI-H522 lung),TGI (BT-549 breast),TGI (IGROV1 ovarian),TGI (NCI/ADR-RES ovarian),TGI (SF-295 CNS),TGI (SN12C renal)
CN(C)c1ccc(C2CC(c3ccc4ccccc4c3O)=NN2)cc1 (stereo not given),59.7 µM,> 100 µM,> 100 µM,> 100 µM,66.8 µM,> 100 µM,> 100 µM,> 100 µM,> 100 µM,92 µM,51.5 µM,70.5 µM,> 100 µM,> 100 µM,85.5 µM,> 100 µM,> 100 µM,> 100 µM,> 100 µM,> 100 µM
NC(N)=Nc1ccc(-c2ccc(N=C(N)N)cc2)cc1,> 100 µM,> 100 µM,> 100 µM,> 100 µM,> 100 µM,> 100 µM,99.7 µM,> 100 µM,54.1 µM,> 100 µM,47 µM,74.7 µM,> 100 µM,> 100 µM,> 100 µM,> 100 µM,> 89.6 µM,> 100 µM,> 100 µM,> 100 µM
C=C(C)[C@@H]1CCC2=C[C@@H](OC2=O)[C@@H](C(=C)C)C2=CC(C(=O)O)=C(C1)O2,> 100 µM,> 100 µM,> 100 µM,> 100 µM,> 100 µM,> 100 µM,> 100 µM,> 100 µM,> 100 µM,> 100 µM,> 100 µM,> 100 µM,> 100 µM,> 100 µM,> 100 µM,> 100 µM,> 100 µM,> 100 µM,> 100 µM,> 100 µM
CC1OC(OC2C(O[C@H]3CC[C@@H]4C(=CC[C@@H]5[C@@]4(C)C(=O)C[C@]4(C)[C@@H]([C@H](C)CC[C@@H](O)C(C)(C)O)CC[C@@]54C)C3(C)C)OC(CO)C(O)C2O)C(O)C(O)C1O (stereo not given in full),> 100 µM,> 100 µM,> 100 µM,> 100 µM,> 100 µM,> 100 µM,> 100 µM,> 100 µM,> 100 µM,> 100 µM,> 100 µM,> 100 µM,> 100 µM,> 100 µM,> 100 µM,> 100 µM,> 100 µM,> 100 µM,> 100 µM,> 100 µM
COc1ccc(N2CN3OC(=O)N(c4ccc(OC)cc4)[C@@]3(c3ccccc3)C2)cc1,> 100 µM,74.6 µM,99.6 µM,> 100 µM,> 100 µM,48.9 µM,45.1 µM,> 100 µM,76.9 µM,> 100 µM,80.1 µM,> 100 µM,> 100 µM,22.6 µM,> 100 µM,> 100 µM,> 100 µM,32 µM,92.9 µM,> 100 µM
CN1CCc2cc3c(c4c2C1C(O)c1ccccc1-4)OCO3 (stereo not given),62.2 µM,10.8 µM,22.5 µM,26.3 µM,8.45 µM,44.1 µM,21.7 µM,34 µM,26.4 µM,37.6 µM,> 100 µM,> 100 µM,7.22 µM,16.1 µM,13.7 µM,19.4 µM,26 µM,53.9 µM,21.1 µM,11.1 µM
COc1cc(NC(C)c2ccc3c(c2)OCCO3)cc(OC)c1OC (stereo not given),> 100 µM,> 100 µM,> 100 µM,> 100 µM,> 100 µM,> 100 µM,79.8 µM,> 100 µM,76.3 µM,> 100 µM,71.8 µM,60.4 µM,> 100 µM,30.2 µM,48.9 µM,> 100 µM,> 100 µM,91.4 µM,> 100 µM,> 100 µM
O=[N+]([O-])C(=C(Cl)Cl)C(Cl)=C(Cl)Cl,0.648 µM,0.091 µM,2.11 µM,0.74 µM,14.9 µM,2.24 µM,3.24 µM,2.94 µM,1.83 µM,0.175 µM,0.254 µM,3.45 µM,1.03 µM,1.24 µM,< 0.0106 µM,0.528 µM,1.15 µM,5.45 µM,9.54 µM,2.22 µM
O=C(C1OC1c1ccc(Cl)cc1)C12CC3CC(CC(C3)C1)C2 (stereo not given),30.7 µM,39.2 µM,54.8 µM,54.7 µM,46.7 µM,30 µM,43.6 µM,41.9 µM,28.6 µM,51.9 µM,35.7 µM,32.5 µM,39 µM,36.6 µM,42.5 µM,52.1 µM,67.4 µM,49 µM,58.6 µM,32.2 µM
